Calls of active or inactive are those of the source.

Assay [1] is described as follows: nonselective StAR promoter luciferase inhibitors – cell-based, luminescence, luciferase reporter, counter-screen for LRH-1 inverse agonist project, dose response (AID 651969). In kind it is functional.
The target in the next assay is Steroidogenic factor 1 (Homo sapiens, UniProt Q13285). The assay is described as follows: Counterscreen for inverse agonists of the liver receptor homolog-1 (LRH-1; NR5A2): Luminescence-based cell-based high throughput dose response assay to identify inverse agonists of the Steroidogenic Factor 1 Nuclear Receptor (SF1; NR5A1). In kind it is functional.
Assay [2] concerns the target Nuclear receptor subfamily 5 group A member 2 (Homo sapiens, UniProt O00482). It counts as functional, cell-based.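 Also: HEK293T cells transfected with LRH-1 and a StAR promoter luciferase reporter; potency for inhibitors that lower LRH-1 driven reporter light.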
A short description of assay [3]: blockers of CRF-binding protein–CRF-R2 complex – cell-based, uHTS hits, 384-well, dose response (AID 651639). In kind it is functional, Homo sapiens. Conditions: read-out: IC50_Mean.
For assay [4], the target named is T1, Corticotropin-releasing factor receptor 2/Corticotropin-releasing factor-binding protein (Homo sapiens, UniProt P24387+Q13324).
T1 sequence (Q13324 whole entry): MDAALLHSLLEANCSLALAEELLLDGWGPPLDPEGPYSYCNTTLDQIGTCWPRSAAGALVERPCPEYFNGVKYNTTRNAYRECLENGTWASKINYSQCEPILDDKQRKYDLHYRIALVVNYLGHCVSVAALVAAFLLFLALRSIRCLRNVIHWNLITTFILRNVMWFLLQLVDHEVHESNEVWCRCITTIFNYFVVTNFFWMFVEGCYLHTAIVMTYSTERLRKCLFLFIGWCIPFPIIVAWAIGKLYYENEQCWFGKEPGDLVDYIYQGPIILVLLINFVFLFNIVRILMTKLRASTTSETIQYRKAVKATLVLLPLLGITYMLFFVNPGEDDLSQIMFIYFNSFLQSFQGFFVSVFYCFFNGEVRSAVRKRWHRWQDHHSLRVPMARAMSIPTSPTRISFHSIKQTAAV
T1 sequence (P24387 whole entry): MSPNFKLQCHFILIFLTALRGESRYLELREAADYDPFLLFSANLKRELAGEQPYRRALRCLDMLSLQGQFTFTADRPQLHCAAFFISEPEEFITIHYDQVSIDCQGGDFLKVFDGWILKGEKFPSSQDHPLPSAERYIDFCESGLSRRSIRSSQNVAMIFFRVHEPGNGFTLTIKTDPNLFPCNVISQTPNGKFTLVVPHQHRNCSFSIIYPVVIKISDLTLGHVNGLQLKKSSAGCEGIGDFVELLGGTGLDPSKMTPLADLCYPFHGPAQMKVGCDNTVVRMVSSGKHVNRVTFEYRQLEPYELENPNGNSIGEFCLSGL
The assay can be described thus: activators of CRF receptor 2 with binding protein – uHTS hits, confirmation (AID 602473). In kind it is functional. The note with it: read-out: EC50_Mean.

Assay [5] addresses T1, Corticotropin-releasing factor receptor 2/Corticotropin-releasing factor-binding protein. The assay can be described thus: Dose Response confirmation of uHTS hits for small molecule antagonists of the CRF-binding protein and CRF-R2 receptor complex. In kind it is functional. The note with it: read-out: IC50_Mean.
Assay [6] in a line: decrease of insulin promoter-GFP reporter – imaging, high-content screening, mouse beta cells (AID 1628). It counts as functional. The note with it: MIN6.
Assay [7] in a line: MIN6 cell viability loss – mouse insulinoma, cytotoxicity control, dose response (AID 2122).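 Also: confirmatory high-throughput counterscreen run to flag cytotoxic compounds.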 In kind it is functional.
Another assay relates to Vero. The assay can be described thus: viability of Vero cells under compound – cytotoxicity control for flavivirus capping enzyme inhibitors (AID 588742). The note with it: Chlorocebus sabaeus. In kind it is functional.
Another assay deals with HEK293. The assay can be described thus: cells. In kind it is functional, cell-based. Conditions: Homo sapiens.
The target in assay [8] is T2, Nuclear receptor subfamily 0 group B member 1 (Homo sapiens, UniProt P51843).
T2 sequence (P51843 whole entry): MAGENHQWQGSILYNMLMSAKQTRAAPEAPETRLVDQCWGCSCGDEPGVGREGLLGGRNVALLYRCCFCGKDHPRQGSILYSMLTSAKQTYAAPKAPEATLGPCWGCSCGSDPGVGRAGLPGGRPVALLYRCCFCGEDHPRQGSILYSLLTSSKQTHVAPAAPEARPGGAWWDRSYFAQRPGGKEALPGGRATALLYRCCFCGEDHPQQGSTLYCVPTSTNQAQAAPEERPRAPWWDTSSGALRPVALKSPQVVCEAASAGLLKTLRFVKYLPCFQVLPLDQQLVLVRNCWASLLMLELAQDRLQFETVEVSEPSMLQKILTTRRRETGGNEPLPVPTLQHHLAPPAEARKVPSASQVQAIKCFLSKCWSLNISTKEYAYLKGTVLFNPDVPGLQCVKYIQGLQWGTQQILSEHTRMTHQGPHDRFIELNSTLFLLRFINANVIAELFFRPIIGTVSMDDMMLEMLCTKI
The assay can be described thus: Luminescence-based cell-based high throughput dose response assay for inhibitors of the orphan nuclear receptor subfamily 0, group B, member 1 (DAX1; NR0B1). [Related pubchem assays (depositor defined):AID504766, AID504790]. It counts as functional.

The nature of assay [9]: HEK-293T viability loss after treatment – luminescence, T-cell screen hits, cytotoxicity control for TCR NF-kB inhibitor project, dose response (AID 489026).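 Also: cells exposed to compound about 14 hours before the viability readout.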 It counts as functional, cell-based.

Steroidogenic factor 1, sequence (Q13285 whole entry): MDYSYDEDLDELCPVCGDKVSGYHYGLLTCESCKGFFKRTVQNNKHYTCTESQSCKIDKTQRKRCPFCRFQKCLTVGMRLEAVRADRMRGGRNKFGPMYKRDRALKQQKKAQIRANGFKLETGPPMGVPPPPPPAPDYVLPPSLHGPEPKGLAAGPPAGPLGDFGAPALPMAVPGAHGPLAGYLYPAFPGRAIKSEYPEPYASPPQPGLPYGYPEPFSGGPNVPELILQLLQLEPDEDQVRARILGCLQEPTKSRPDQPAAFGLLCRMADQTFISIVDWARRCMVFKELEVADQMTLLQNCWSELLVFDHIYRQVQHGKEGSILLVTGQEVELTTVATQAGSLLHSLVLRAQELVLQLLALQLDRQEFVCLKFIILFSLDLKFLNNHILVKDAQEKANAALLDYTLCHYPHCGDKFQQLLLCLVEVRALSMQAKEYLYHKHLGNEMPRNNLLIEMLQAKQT
Nuclear receptor subfamily 5 group A member 2, sequence (O00482 whole entry): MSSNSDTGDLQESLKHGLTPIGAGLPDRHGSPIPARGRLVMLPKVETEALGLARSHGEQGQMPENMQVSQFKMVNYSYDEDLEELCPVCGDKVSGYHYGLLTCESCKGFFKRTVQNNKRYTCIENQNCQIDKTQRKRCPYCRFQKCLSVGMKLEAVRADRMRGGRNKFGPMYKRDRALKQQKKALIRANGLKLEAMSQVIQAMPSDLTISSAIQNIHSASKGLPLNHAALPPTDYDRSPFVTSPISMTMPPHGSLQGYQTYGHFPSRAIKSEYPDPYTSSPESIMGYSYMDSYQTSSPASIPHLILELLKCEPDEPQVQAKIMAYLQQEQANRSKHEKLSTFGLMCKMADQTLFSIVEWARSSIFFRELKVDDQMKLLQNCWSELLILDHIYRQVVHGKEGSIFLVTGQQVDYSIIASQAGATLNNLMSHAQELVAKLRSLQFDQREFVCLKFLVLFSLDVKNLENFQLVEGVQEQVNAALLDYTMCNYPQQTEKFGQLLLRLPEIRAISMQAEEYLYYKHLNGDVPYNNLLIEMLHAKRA

As for `COc1cccc(C(=O)COc2cccc(NC(=O)c3cccc([N+](=O)[O-])c3)c2)c1`, the IC50 in [1] was 10.9 µM (inactive); on Steroidogenic factor 1, 0.443 µM (active); in assay [2], 0.443 µM (active).
Consider `Cc1ccccc1Cn1nc(C)c(NC(=O)c2cc(-c3cccs3)on2)c1C`, for which the IC50 in assay [3] is > 20 µM (inactive); in assay [5] it was 39.1 µM (active). The EC50 in assay [4] was > 53 µM (inactive).
In the case of `COC(=O)c1ccc(NC(=O)CSc2nn3c(=O)c(C)nnc3s2)cc1`, the IC50 (in assay [1]; on Steroidogenic factor 1; in assay [2]) was 35.9 µM (inactive) throughout.
Regarding `COC(=O)c1[nH]c2ccccc2c1NC(=O)CN1CCCCCC1`, the IC50 in assay [6] is 3.51 µM (active); in [7], 2.63 µM (active).
Regarding `COc1ccc(CSc2nnc(NC(C)=O)s2)cc1[N+](=O)[O-]`, the 50% cytotoxic concentration (CC50) with Vero was > 40 µM (active).
As to `COc1ccccc1N1CCN(S(=O)(=O)c2cc(C(F)(F)F)cc(C(F)(F)F)c2)CC1`, the IC50 (with HEK293; in assay [8]) was > 67.5 µM (inactive) throughout.
As to `O=C(Nc1nc2ccc(S(=O)(=O)N3CCCC3)cc2s1)C1CCCCC1`, in [9], the IC50 is > 80 µM (inactive).
Consider `CCOCCCNc1[nH]cnc2c3ccccc3nc1-2`, for which the IC50 in assay [6] is 2.76 µM (active); in [7], 2.31 µM (active).
Consider `O=C(CN1C(=O)NC2(CCCC2)C1=O)NCC1CCCO1` (configuration not stated), for which the IC50 (in the assay with HEK293; in [8]) was > 67.5 µM (inactive) each time.
Consider `COc1cccc(C2(c3cccc(OC)c3)CC2C(=O)Nc2ccccc2Cl)c1` (configuration not stated), for which the IC50 was > 20 µM (inactive) in [3] and 3.83 µM (active) in [5]. Further, the EC50 in assay [4] was > 53 µM (inactive).

These data come from ChEMBL document CHEMBL1201862, “PubChem BioAssay data set” (2004).
